In publication PMC11542607 (RSC Advances, 2024):

How the values were obtained:
[1] = tested on: HCT116 (colorectal carcinoma); assay: MTT cytotoxicity assay, HCT-116; type: cell-based; details: Homo sapiens, HCT-116, read-out: IC50 HCT-116
[2] = tested on: WI-38 normal fibroblast cell line; assay: Cytotoxicity towards normal human cells; type: cell-based; details: WI-38, read-out: IC50 WI-38
MCF-7 (breast cancer) = assay: MTT cytotoxicity assay, MCF-7; type: cell-based; details: Homo sapiens, MCF7, read-out: IC50 MCF-7
[3] = tested on: HeLa (cervical epithelioid carcinoma); assay: MTT cytotoxicity assay, HeLa; type: cell-based; details: Homo sapiens, read-out: IC50 HeLa
[4] = Body weight in DMBA-induced breast cancer model; type: in vivo; details: DMBA model mice; for Body weight at day 20: control 28.91 g, DMBA 35.2 g; for Body weight at start: start of 20 days period, control 20.51 g, DMBA 18.8 g
[5] = tested on: DMBA-induced breast cancer; assay: In vivo DMBA-induced breast cancer model; parameters: species or system mice; details: day 20; for Final tumor volume: untreated DMBA group approximately 2.4 mm^3
HER-2 = HER-2 (Homo sapiens, UniProt P04626); assay: biochemical
Chain of HER-2 (P04626 23-1255): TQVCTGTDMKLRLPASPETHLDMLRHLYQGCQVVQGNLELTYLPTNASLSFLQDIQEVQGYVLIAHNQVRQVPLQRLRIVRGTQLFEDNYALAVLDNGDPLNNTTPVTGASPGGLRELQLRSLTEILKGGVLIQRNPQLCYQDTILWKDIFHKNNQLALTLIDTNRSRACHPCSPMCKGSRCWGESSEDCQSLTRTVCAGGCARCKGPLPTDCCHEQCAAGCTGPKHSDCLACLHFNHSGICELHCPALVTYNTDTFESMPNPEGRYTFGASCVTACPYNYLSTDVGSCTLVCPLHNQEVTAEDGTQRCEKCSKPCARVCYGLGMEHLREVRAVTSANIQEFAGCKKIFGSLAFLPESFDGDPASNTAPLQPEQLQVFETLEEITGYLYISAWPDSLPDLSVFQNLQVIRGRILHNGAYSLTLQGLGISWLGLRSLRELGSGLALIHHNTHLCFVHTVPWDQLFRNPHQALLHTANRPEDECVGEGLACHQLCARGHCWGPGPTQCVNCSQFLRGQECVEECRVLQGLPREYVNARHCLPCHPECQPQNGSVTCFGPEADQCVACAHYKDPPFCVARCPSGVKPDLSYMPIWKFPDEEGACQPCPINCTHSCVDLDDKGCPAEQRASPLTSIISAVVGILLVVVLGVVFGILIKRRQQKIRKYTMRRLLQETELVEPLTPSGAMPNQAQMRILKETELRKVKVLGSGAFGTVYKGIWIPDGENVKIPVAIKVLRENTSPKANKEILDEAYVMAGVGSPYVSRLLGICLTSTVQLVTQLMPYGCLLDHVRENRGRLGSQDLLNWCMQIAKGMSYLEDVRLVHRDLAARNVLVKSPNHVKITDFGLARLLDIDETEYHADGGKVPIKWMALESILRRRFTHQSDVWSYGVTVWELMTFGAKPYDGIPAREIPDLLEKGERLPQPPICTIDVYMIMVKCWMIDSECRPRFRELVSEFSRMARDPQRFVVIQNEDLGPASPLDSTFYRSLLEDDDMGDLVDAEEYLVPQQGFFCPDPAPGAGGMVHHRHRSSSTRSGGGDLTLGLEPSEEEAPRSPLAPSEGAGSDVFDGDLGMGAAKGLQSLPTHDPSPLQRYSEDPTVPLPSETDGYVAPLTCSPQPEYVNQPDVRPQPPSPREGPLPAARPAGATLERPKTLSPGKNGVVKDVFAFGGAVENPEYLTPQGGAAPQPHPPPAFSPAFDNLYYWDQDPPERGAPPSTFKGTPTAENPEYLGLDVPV

aromatase (ARO) = target: T1, aromatase (ARO) (Homo sapiens, UniProt P11511); assay: Aromatase enzyme inhibition assay; type: biochemical
T1 sequence (P11511 1-503): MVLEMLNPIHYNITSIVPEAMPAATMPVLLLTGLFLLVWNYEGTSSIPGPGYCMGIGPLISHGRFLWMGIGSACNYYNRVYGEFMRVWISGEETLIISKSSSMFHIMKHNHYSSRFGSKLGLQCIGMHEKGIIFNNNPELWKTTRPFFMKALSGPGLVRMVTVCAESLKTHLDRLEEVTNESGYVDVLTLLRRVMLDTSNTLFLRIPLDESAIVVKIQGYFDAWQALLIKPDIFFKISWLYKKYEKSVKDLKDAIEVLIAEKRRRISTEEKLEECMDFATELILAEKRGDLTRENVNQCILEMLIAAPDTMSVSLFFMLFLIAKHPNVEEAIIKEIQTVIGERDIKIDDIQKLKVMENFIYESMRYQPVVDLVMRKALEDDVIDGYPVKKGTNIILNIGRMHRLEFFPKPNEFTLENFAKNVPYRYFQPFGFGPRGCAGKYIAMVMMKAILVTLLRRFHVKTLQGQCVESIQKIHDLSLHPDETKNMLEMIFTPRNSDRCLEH

TOP-II = TOP-II (Homo sapiens, UniProt P11388); assay: TOP-II enzyme inhibition assay; type: biochemical
Chain of TOP-II (P11388 whole entry): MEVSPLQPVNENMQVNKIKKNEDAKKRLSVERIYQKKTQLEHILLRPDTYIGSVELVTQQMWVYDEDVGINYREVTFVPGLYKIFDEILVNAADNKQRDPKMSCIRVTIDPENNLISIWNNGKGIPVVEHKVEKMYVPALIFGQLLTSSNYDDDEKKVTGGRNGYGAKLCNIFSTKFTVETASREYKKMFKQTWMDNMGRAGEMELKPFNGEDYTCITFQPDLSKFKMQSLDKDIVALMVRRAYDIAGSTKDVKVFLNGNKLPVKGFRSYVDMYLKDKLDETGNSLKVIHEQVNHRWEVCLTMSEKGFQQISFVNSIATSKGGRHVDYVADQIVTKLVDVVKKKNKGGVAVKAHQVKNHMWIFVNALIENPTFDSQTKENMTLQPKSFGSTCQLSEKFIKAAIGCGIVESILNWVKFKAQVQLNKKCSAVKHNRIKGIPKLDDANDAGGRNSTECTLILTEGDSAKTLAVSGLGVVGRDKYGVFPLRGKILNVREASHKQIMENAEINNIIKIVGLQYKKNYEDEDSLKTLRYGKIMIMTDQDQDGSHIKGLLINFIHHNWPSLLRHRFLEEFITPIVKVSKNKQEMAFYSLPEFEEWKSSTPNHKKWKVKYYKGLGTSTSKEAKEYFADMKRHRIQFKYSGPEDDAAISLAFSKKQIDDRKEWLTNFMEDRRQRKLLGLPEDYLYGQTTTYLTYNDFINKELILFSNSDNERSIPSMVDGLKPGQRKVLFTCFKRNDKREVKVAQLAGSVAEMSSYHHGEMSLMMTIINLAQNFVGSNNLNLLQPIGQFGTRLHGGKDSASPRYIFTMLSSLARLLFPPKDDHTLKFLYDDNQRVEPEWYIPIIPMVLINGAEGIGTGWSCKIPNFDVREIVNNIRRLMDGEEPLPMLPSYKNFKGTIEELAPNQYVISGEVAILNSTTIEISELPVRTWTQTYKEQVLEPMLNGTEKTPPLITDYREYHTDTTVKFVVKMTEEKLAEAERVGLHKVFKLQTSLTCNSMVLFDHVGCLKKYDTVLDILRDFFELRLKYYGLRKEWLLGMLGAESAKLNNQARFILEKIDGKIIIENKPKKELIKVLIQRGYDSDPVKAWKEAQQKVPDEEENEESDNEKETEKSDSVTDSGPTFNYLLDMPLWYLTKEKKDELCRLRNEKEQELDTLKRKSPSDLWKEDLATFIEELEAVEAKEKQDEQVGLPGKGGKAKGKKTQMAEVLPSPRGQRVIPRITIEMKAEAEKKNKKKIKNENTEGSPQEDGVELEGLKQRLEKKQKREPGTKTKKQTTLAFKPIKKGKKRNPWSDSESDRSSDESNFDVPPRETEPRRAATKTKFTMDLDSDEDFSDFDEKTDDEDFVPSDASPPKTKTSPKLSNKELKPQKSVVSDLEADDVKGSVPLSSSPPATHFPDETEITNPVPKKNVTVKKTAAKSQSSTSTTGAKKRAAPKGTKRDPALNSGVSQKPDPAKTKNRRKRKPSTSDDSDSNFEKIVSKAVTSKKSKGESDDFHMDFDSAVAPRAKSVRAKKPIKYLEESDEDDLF

MCF-7 cells = assay: Flow cytometry cell cycle analysis; type: cell-based, human
EGFR = EGFR (Homo sapiens, UniProt P00533); assay: EGFR enzyme inhibition assay; type: biochemical
Chain of EGFR (P00533 25-1210): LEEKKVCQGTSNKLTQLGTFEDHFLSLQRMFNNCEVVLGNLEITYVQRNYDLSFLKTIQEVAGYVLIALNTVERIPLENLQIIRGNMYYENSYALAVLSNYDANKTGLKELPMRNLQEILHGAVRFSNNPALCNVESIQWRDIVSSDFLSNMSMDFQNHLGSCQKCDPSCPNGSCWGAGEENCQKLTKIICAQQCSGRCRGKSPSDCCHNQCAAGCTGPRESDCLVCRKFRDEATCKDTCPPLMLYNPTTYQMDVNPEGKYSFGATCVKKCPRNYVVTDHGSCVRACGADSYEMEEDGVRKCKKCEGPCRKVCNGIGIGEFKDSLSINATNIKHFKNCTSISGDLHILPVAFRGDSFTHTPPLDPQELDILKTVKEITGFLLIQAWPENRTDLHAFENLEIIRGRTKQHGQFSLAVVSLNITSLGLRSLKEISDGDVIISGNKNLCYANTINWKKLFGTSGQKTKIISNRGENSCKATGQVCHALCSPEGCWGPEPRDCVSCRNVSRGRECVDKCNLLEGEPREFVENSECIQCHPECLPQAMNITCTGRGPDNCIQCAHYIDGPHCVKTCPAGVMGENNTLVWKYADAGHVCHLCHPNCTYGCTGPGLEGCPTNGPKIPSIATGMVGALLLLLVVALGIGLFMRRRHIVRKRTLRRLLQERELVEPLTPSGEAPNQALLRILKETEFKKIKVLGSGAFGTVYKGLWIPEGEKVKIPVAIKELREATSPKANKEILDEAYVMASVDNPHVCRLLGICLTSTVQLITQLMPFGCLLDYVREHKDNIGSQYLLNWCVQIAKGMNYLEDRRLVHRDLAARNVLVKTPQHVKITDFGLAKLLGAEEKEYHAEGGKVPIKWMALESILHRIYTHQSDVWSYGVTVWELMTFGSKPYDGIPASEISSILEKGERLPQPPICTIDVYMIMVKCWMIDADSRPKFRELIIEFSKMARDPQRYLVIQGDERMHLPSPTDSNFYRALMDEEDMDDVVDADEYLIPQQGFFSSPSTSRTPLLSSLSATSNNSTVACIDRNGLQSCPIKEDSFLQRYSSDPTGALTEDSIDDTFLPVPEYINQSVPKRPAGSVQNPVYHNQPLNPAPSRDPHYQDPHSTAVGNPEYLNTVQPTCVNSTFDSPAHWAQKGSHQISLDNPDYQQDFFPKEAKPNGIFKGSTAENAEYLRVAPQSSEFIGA

caspase-3 = assay: Caspase-3 immunostaining of mammary tissue in DMBA model; type: in vivo, mice; details: for caspase-3 positive cells: immunostaining, mean ± standard error (n = 5), control 4.5 ± 0.2, DMBA 0.5 ± 0.1

Structure (SMILES)	IC50 [1] [µM]	IC50 [2] [µM]	IC50 (MCF-7 (breast cancer)) [µM]	IC50 [3] [µM]	other results
Cc1cc(Sc2nnc(-c3ccc(Cl)cc3)o2)n2ncnc2n1 [Compound 13d, 2-(4-Chlorophenyl)-5-((5-methyl-[1,2,4]triazolo[1,5-a]pyrimidin-7-yl)thio)-1,3,4-oxadiazole]	24.8 ± 1.8	66.1 ± 3.8	14.2 ± 1.1	42.9 ± 2.5	
Cc1cc(Sc2nnc(-c3ccc([N+](=O)[O-])cc3)o2)n2ncnc2n1 [Compound 13c, 2-((5-Methyl-[1,2,4]triazolo[1,5-a]pyrimidin-7-yl)thio)-5-(4-nitrophenyl)-1,3,4-oxadiazole]	6.1 ± 0.5	38.6 ± 2.2	2.42 ± 0.1	10.3 ± 0.9	Body weight at day 20 [4]: 30.6 g; Body weight at start [4]: 20.2 g; Reduction in final tumor volume compared to untreated DMBA group [5]: 62.5%; Final tumor volume [5]: about 0.9 mm^3; IC50 (HER-2): 0.078 µM; IC50 (aromatase (ARO)): 0.156 µM; IC50 (TOP-II): 31.6 µM; Cell cycle distribution G2-M (MCF-7 cells; DMSO control 18.18): 10.32%; Cell cycle distribution S (MCF-7 cells; DMSO control 24.83): 37.01%; Cell cycle distribution G0-G1 (MCF-7 cells; DMSO control 56.99): 52.67%; IC50 (EGFR): 0.087 µM; caspase-3 positive cells (caspase-3): 2.3 ± 0.3 cells; Increase of caspase-3 positive cells from the DMBA group (caspase-3; mouse, in vivo): 360%; Share of the control's apoptotic activity (caspase-3) (caspase-3; mouse, in vivo): about 51%
COc1ccc(-c2nc(Sc3cc(C)nc4ncnn34)[nH]c(=O)c2C#N)cc1 [Compound 11d, 4-(4-Methoxyphenyl)-2-((5-methyl-[1,2,4]triazolo[1,5-a]pyrimidin-7-yl)thio)-6-oxo-1,6-dihydropyrimidine-5-carbonitrile]	47.9 ± 2.7	71.2 ± 3.9	34.6 ± 2.3	63.4 ± 3.6	
Cc1cc(Sc2nnc(-c3ccccc3)o2)n2ncnc2n1 [Compound 13a, 2-((5-Methyl-[1,2,4]triazolo[1,5-a]pyrimidin-7-yl)thio)-5-phenyl-1,3,4-oxadiazole]	15 ± 1.2	91.4 ± 4.9	18.6 ± 1.3	23.6 ± 1.9	
Cc1cc(Sc2nc(-c3cccc(Br)c3)c(C#N)c(=O)[nH]2)n2ncnc2n1 [Compound 11f, 4-(3-Bromophenyl)-2-((5-methyl-[1,2,4]triazolo[1,5-a]pyrimidin-7-yl)thio)-6-oxo-1,6-dihydropyrimidine-5-carbonitrile]	31.2 ± 2.2	77.3 ± 4.3	22.2 ± 1.6	35.9 ± 2.2	
Cc1cc(Sc2nnc(-c3ccc(Br)cc3)o2)n2ncnc2n1 [Compound 13e, 2-(4-Bromophenyl)-5-((5-methyl-[1,2,4]triazolo[1,5-a]pyrimidin-7-yl)thio)-1,3,4-oxadiazole]	55.1 ± 3.5	> 100	42.6 ± 2.4	57.4 ± 3.2	
Cc1cc(Sc2nc(-c3ccc(Br)cc3)c(C#N)c(=O)[nH]2)n2ncnc2n1 [Compound 11a, 4-(4-Bromophenyl)-2-((5-methyl-[1,2,4]triazolo[1,5-a]pyrimidin-7-yl)thio)-6-oxo-1,6-dihydropyrimidine-5-carbonitrile]	41 ± 2.4	75.9 ± 4.1	30.5 ± 2.1	33.4 ± 2.3	
Cc1ccc(-c2nc(Sc3cc(C)nc4ncnn34)[nH]c(=O)c2C#N)cc1 [Compound 11c, 2-((5-Methyl-[1,2,4]triazolo[1,5-a]pyrimidin-7-yl)thio)-6-oxo-4-(p-tolyl)-1,6-dihydropyrimidine-5-carbonitrile]	21.5 ± 1.5	45 ± 2.4	9.15 ± 0.7	19.2 ± 1.6	
Cc1cc(Sc2nc(-c3ccc(Cl)cc3)c(C#N)c(=O)[nH]2)n2ncnc2n1 [Compound 11b, 4-(4-Chlorophenyl)-2-((5-methyl-[1,2,4]triazolo[1,5-a]pyrimidin-7-yl)thio)-6-oxo-1,6-dihydropyrimidine-5-carbonitrile]	12.6 ± 1	56.2 ± 3	8.39 ± 0.6	17.5 ± 1.4	
COc1ccc(-c2nc(Sc3cc(C)nc4ncnn34)[nH]c(=O)c2C#N)cc1OC [Compound 11e, 4-(3,4-Dimethoxyphenyl)-2-((5-methyl-[1,2,4]triazolo[1,5-a]pyrimidin-7-yl)thio)-6-oxo-1,6-dihydropyrimidine-5-carbonitrile]	8.89 ± 0.8	60.3 ± 3.3	5.92 ± 0.3	13.6 ± 1.1	IC50 (HER-2): 0.116 µM; IC50 (aromatase (ARO)): 0.38 µM; IC50 (TOP-II): 36.7 µM; IC50 (EGFR): 0.246 µM
Cc1cc(N2CCN(C(=O)CN3CCOCC3)CC2)n2ncnc2n1 [Compound 7e, 1-(4-(5-Methyl-[1,2,4]triazolo[1,5-a]pyrimidin-7-yl)piperazin-1-yl)-2-morpholinoethanone]	88.4 ± 4.5	26.3 ± 1.9	84.7 ± 4.1	78.5 ± 4.2	
COc1cccc2c1C(=O)c1c(O)c3c(c(O)c1C2=O)C[C@@](O)(C(=O)CO)C[C@@H]3O[C@H]1C[C@H](N)[C@H](O)[C@H](C)O1 [DOX, Doxorubicin, reference compound]					Body weight at day 20 [4]: 31.8 g; Body weight at start [4]: 19.8 g; Reduction in final tumor volume compared to untreated DMBA group [5]: 75%; Final tumor volume [5]: approximately 0.6 mm^3; IC50 (TOP-II): 34 µM; caspase-3 positive cells (caspase-3): 4.0 ± 0.2 cells; Decrease of caspase-3 positive cells from the control (caspase-3; mouse, in vivo): 11%; Increase of caspase-3 positive cells from the DMBA group (caspase-3; mouse, in vivo): 700%
COc1ccc(NC(=O)Nc2nnc(Sc3cc(C)nc4ncnn34)s2)cc1 [Compound 9d, 1-(4-Methoxyphenyl)-3-(5-((5-methyl-[1,2,4]triazolo[1,5-a]pyrimidin-7-yl)thio)-1,3,4-thiadiazol-2-yl)urea]	> 100	> 100	92.4 ± 4.4	82.4 ± 4.1	
Cc1cc(Sc2nnc(NC(=O)Nc3ccc(Cl)cc3)s2)n2ncnc2n1 [Compound 9b, 1-(4-Chlorophenyl)-3-(5-((5-methyl-[1,2,4]triazolo[1,5-a]pyrimidin-7-yl)thio)-1,3,4-thiadiazol-2-yl)urea]	> 100	64.7 ± 3.5	> 100	87.7 ± 4.4	
Cc1ccc(-c2nnc(Sc3cc(C)nc4ncnn34)o2)cc1 [Compound 13b, 2-((5-Methyl-[1,2,4]triazolo[1,5-a]pyrimidin-7-yl)thio)-5-(p-tolyl)-1,3,4-oxadiazole]	29.3 ± 2	83.5 ± 4.5	27.8 ± 2	39 ± 2.4	
Cc1cc(Sc2nnc(NC(=O)Nc3ccccc3)s2)n2ncnc2n1 [Compound 9a, 1-(5-((5-Methyl-[1,2,4]triazolo[1,5-a]pyrimidin-7-yl)thio)-1,3,4-thiadiazol-2-yl)-3-phenylurea]	44.4 ± 2.6	48.4 ± 2.6	37.2 ± 2.3	25.2 ± 2	
Cc1ccc(NC(=O)Nc2nnc(Sc3cc(C)nc4ncnn34)s2)cc1 [Compound 9c, 1-(5-((5-Methyl-[1,2,4]triazolo[1,5-a]pyrimidin-7-yl)thio)-1,3,4-thiadiazol-2-yl)-3-(p-tolyl)urea]	58.5 ± 3.3	18.1 ± 1.3	46.1 ± 2.5	51.9 ± 2.8	
